Assay results: the Kinase Knowledgebase extract (Sharma et al. 2016)

Biological target: PIK3CA (human) (UniProt P42336)
Assay: Inhibition of PIK3CA Kinase Activity

Sequence of PIK3CA (human) (P42336 whole entry, looked up): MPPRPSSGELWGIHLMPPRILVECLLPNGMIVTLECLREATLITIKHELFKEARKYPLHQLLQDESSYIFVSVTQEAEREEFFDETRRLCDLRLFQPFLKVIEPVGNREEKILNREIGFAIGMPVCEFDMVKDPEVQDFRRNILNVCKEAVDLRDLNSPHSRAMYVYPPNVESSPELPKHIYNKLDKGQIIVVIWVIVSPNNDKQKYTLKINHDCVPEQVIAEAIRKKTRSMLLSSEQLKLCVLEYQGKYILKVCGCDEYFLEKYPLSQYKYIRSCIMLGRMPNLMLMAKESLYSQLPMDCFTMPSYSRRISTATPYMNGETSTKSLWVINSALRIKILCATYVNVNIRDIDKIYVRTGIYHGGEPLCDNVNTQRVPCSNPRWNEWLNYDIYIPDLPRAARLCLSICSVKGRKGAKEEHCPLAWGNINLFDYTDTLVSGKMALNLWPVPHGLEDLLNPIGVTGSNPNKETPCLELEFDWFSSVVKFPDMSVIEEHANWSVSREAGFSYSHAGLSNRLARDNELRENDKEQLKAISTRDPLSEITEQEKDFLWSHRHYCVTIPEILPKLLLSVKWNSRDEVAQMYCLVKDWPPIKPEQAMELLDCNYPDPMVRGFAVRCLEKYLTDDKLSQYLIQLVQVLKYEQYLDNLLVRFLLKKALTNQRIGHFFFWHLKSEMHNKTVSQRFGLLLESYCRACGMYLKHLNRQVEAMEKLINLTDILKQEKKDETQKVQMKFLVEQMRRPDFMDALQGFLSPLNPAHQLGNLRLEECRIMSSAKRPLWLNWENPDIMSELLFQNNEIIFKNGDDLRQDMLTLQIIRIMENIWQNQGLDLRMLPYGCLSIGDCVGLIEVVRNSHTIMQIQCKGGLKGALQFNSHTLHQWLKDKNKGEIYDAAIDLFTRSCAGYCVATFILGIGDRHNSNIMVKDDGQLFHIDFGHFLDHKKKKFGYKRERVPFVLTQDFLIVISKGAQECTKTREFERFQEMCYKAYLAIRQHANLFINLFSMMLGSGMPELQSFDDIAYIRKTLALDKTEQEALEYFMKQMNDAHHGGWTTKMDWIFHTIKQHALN

Structure (SMILES)	IC50
CC1(C)CCc2ncnc(N3CCOc4ccc(-c5cnc(N)c(S(=O)(=O)NCC(F)(F)F)c5)cc4C3)c2C1	50 to 250 nM
CCc1nc2ccc(-c3ccc4c(c3)CN(c3ncnc5c3CC(C)(C)CC5)CCO4)cc2[nH]1	50 to 250 nM
CCC1CCc2ncnc(N3CCOc4ccc(-c5cnc6nc(N)[nH]c6c5)cc4C3)c2C1 (stereo not drawn)	≤ 10 nM
CCNc1nc2ccc(-c3ccc4c(c3)CN(c3cc(C)nc5cc(F)ccc35)CCO4)cc2[nH]1	≤ 10 nM
Cc1nc2ccc(-c3ccc4c(c3)CN(c3cc(-c5ccccc5)nc5ccccc35)CCO4)cc2[nH]1	50 to 250 nM
CCCc1c(C)nc(CN(C)C)nc1N1CCOc2ccc(-c3ccc4nc(C)[nH]c4c3)cc2C1	10 to 50 nM
CC[C@H]1CCc2c(ncnc2N2CCOc3ccc(-c4cnc(N)c(S(=O)(=O)N5C[C@@H]6C[C@H]5CN6)c4)cc3C2)C1	10 to 50 nM
Cc1nc2cc(-c3ccc4c(c3)CN(c3nc(CF)nc5c3CC(C)(C)CC5)CCO4)ccc2[nH]1	10 to 50 nM
Cc1nc2ncc(-c3ccc4c(c3)CN(c3nc(CN5CCOCC5)nc5c3CC(C)(C)CC5)CCO4)cc2[nH]1	10 to 50 nM
Cc1c(NCCC2CCCN2C)ncnc1N1CCOc2ccc(-c3cnc4nc(C5CC5)[nH]c4c3)cc2C1 (stereo not drawn)	50 to 250 nM
Cc1nc2ncc(-c3ccc4c(c3)CN(c3ncnc(C)c3Br)CCO4)cc2[nH]1	50 to 250 nM
Cc1nc2ncc(-c3ccc4c(c3)CN(c3ncnc(Cl)c3C)CCO4)cc2[nH]1	50 to 250 nM
COc1ccc2c(N3CCOc4ccc(-c5ccc(N)nc5)cc4C3)nc(C)nc2c1	50 to 250 nM
CN(C)S(=O)(=O)c1cc(-c2ccc3c(c2)CN(c2ncnc4c2CC(C)(C)CC4)CCO3)cnc1N	10 to 50 nM
Cc1nc(CN(C)C)nc(N2CCOc3ccc(-c4cnc5sc(N)nc5c4)cc3C2)c1-c1ccccc1	10 to 50 nM
COc1ccc2c(N3CCOc4ccc(-c5ccc6nc[nH]c6c5)cc4C3)nc(C)nc2c1	≤ 10 nM
CC1(C)CCc2ncnc(N3CCOc4ccc(-c5cnc(N)c(S(=O)(=O)NC(C)(C)CN)c5)cc4C3)c2C1	50 to 250 nM
CC1(C)CCc2ncnc(N3CCOc4ccc(-c5ccc6nc(N)[nH]c6c5)cc4C3)c2C1	50 to 250 nM
CC[C@H]1CCc2c(ncnc2N2CCOc3ccc(-c4cnc5nc(N)[nH]c5c4)cc3C2)C1	≤ 10 nM
Cc1ncnc(N2CCOc3ccc(-c4ccc5nc(N)cn5c4)cc3C2)c1Cc1ccc(F)cc1	10 to 50 nM
CC1(C)CCc2ncnc(N3CCOc4ccc(-c5cnc(N)c(S(=O)(=O)NCC(O)CN)c5)cc4C3)c2C1 (stereo not drawn)	≤ 10 nM
Cc1ncnc(N2CCOc3ccc(-c4ccc5[nH]c(NCCF)nc5c4)cc3C2)c1Cc1ccc(F)cc1	10 to 50 nM

Structure (SMILES)	IC50
COc1cccc2c(N3CCOc4ccc(-c5ccc6nc(C)[nH]c6c5)cc4C3)ncnc12	10 to 50 nM
CC1(C)CCc2ncnc(N3CCOc4ccc(-c5cnc(N)c(S(=O)(=O)N6C[C@H]7C[C@@H]6CN7)c5)cc4C3)c2C1	50 to 250 nM
CNC(=O)c1ccc(-c2ccc3c(c2)CN(c2ccnc4ccccc24)CCO3)cc1	50 to 250 nM
CC1(C)C=Cc2ncnc(N3CCOc4ccc(-c5cnc(N)c(S(=O)(=O)N6CC[C@@H](N)C6)c5)cc4C3)c2C1	10 to 50 nM
Cc1ncnc(N2CCOc3ccc(-c4ccc5sc(N)nc5n4)cc3C2)c1Cc1ccc(F)cc1	10 to 50 nM
CC1(C)CCc2ncnc(N3CCOc4ccc(-c5cnc(N)c(S(=O)(=O)N6CCCC(N)C6)c5)cc4C3)c2C1 (stereo not drawn)	50 to 250 nM
CCNc1nc2ccc(-c3ccc4c(c3)CN(c3nc(C)nc(Nc5ccccc5)c3C)CCO4)cc2[nH]1	50 to 250 nM
COc1ccc2c(N3CCOc4ccc(-c5ccc6[nH]c(C)nc6c5)cc4C3)nc(CN(C)C)nc2c1	≤ 10 nM
CC1(C)CCc2ncnc(N3CCOc4ccc(-c5cnc(Cl)c(CS(C)(=O)=O)c5)cc4C3)c2C1	250 to 1000 nM
Cc1nc2c(c(N3CCOc4ccc(-c5cnc(N)c(S(=O)(=O)NCC6CCN(C)CC6)c5)cc4C3)n1)CC(C)(C)CC2	50 to 250 nM
Cc1nc(CN(C)C)nc(N2CCOc3ccc(-c4cnc5sc(N)nc5c4)cc3C2)c1Br	10 to 50 nM
Cc1nc2ccc(-c3ccc4c(c3)CN(c3cc(C(F)(F)F)nc5ccccc35)CCO4)cc2[nH]1	50 to 250 nM
Cc1ncnc(N2CCOc3ccc(-c4ccc(C(N)=O)cc4)cc3C2)c1Cc1ccc(F)cc1	10 to 50 nM
CC1(C)CCc2ncnc(N3CCOc4ccc(-c5cnc(N)c(S(=O)(=O)NCC6CCNCC6)c5)cc4C3)c2C1	10 to 50 nM
CCC(N)CNS(=O)(=O)c1cc(-c2ccc3c(c2)CN(c2ncnc4c2CC(C)(C)CC4)CCO3)cnc1N (stereo not drawn)	10 to 50 nM
CC[C@H]1CCc2c(nc(C)nc2N2CCOc3ccc(-c4cnc5nc(C)[nH]c5c4)cc3C2)C1	≤ 10 nM
CNCCN(C)c1ncnc(N2CCOc3ccc(-c4cnc5nc(C6CC6)[nH]c5c4)cc3C2)c1C	250 to 1000 nM
Cc1ncnc(N2CCOc3ccc(-c4cc5[nH]c(N)nc5cn4)cc3C2)c1Cc1ccc(F)cc1	50 to 250 nM
CCN(CC)Cc1nc(C)c(C(C)C)c(N2CCOc3ccc(-c4ccc5nc(C)[nH]c5c4)cc3C2)n1	10 to 50 nM
Cc1nc(CN(C)C)nc(N2CCOc3ccc(-c4ccc5[nH]c(CF)nc5c4)cc3C2)c1C(C)C	≤ 10 nM
CC1(C)CCc2ncnc(N3CCOc4ccc(-c5cnc(N)c(CS(C)(=O)=O)c5)cc4C3)c2C1	50 to 250 nM
